Data on two molecules can be found in US20090264473A1, “Novel Crystalline Forms of Antidiabetic Compounds” (priority 2006, published 2009).

The nature of data set [1]: bioavailability in laboratory studies in dogs. Format: in vivo.
The nature of data set [2]: stability of crystal form. Format: physicochemical.
A further data set in a line: water solubility. It is filed as physicochemical.
The nature of data set [3]: bioavailability in animals. It is filed as in vivo.
The nature of data set [4]: bioavailability in laboratory studies in rats. Format: in vivo.
Data set [5] in a line: hygroscopicity (weight gain in humid environment). It is filed as physicochemical.
Another data set is described as follows: chemical stability. Format: physicochemical.

Where a name gives a salt, the structure may show the parent alone.

Turning to `CCCc1nc(Oc2ccc(Cl)cc2)ccc1-c1noc2cc(Cl)c(O[C@@H](C)C(=O)O)cc12` [Crystalline Free Acid Anhydrate, (2S)-2-({6-chloro-3-[6-(4-chlorophenoxy)-2-propylpyridin-3-yl]-1,2-benzisoxazol-5-yl}oxy)propanoic acid], the bioavailability result in data set [1], in data set [3] and in data set [4] was “good bioavailability” in each case. In data set [2], the “stability with respect to retaining crystal form” value is given as “stable with respect to retaining their crystal form”. Moreover, the water solubility result in the data set “water solubility” (native pH) is given as “very low water solubility”; in the data set “water solubility” (neutral pH), “low water solubility”. Moreover, the “weight gain when placed in humid environment” value in data set [5] (environment with up to 95% RH) is given as “about 0.2 wt %”.

As for `CCCc1nc(Oc2ccc(Cl)cc2)ccc1-c1noc2cc(Cl)c(O[C@@H](C)C(=O)O)cc12` [benzenesulfonate salt], the hygroscopicity entry in data set [5] is “non-hygroscopic”. The chemical stability result in the data set “chemical stability” is on record as “chemically stable”. Besides, the “chemical stability on storage” value in “chemical stability” (8 months at 40° C. and 75% RH) is reported as “remaining unchanged”.
